# According to PubChem BioAssay AID540269 (Sanford-Burnham Center for Chemical Genomics, 2011):
# Calls of active or inactive are those of the source. No rule for the calls is given here.
# Molecular target: glucose-6-phosphate dehydrogenase-6-phosphogluconolactonase (Plasmodium falciparum 3D7)
# Experiment: inhibition of P. falciparum G6PD activity – biochemical, kinetic NADPH detection, orthogonal assay, dose response (AID 540269)
# Details: purified PfG6PD-6PGL
row,SMILES,IC50
1,COc1cc(N=c2ssnc2Cl)c(OC)cc1Cl,36.8 µM
2,O=c1c2ccccc2sn1-c1ccc(Cl)cc1,17.1 µM
3,O=c1ccsn1Cc1ccccc1,57.9 µM
4,Cc1nn(-c2ccccc2)c(Cl)c1/C=N/Nc1nc2ccccc2n1C,> 80 µM (inactive)
5,COc1ccc(CN(C)S(=O)(=O)c2nnc(NC(=O)c3ccc(C)cc3)s2)cc1OC,29.9 µM
6,CCOC(=O)c1c(C)n(-c2ccc(C)cc2)c2c(C(C(C)=O)C(=O)O)c(Br)c(O)c(O)c12 (configuration not stated),57.4 µM
7,Nn1c(SCC(=O)Nc2cccnc2Cl)nnc1-c1ccccc1,> 80 µM (inactive)
8,O=C1CCN(c2ccccc2)N1,> 80 µM (inactive)
9,COc1cccc(C2(c3cccc(OC)c3)CC2C(=O)Nc2ccc(F)cc2)c1 (configuration not stated),> 80 µM (inactive)
10,Cc1ccc(C)c(-n2sc3ccc(F)cc3c2=O)c1,11.4 µM
11,CN(C)c1ccc(C=c2c3ccccc3n3c2c2ccccc2[n+]3C)cc1,32.8 µM
12,CC(C)(C)NC(=O)COc1ccc(CNc2ccc3[nH]c(=O)[nH]c3c2)cc1,10.4 µM
13,Cc1cc(C)c2c(=N)c3ccccc3n(CCCCCCCCn3c4ccccc4c(=N)c4c(C)cc(C)nc43)c2n1,50.3 µM
14,[O-]/[N+](=C\c1ccco1)c1ccc(Cl)cc1,76.7 µM
15,O=C(CN1C(=O)C2C3C=CC(C3)C2C1=O)OCC(=O)c1ccc([N+](=O)[O-])cc1 (configuration not stated),> 80 µM (inactive)
16,C[C@H](NC(=O)c1cc2c(cn1)[nH]c1ccccc12)C(=O)O,> 80 µM (inactive)
17,COc1ccc(NC(C)C(=O)N/N=C/c2cc(Br)ccc2OC)cc1 (configuration not stated),> 80 µM (inactive)
18,COc1ccc(C(=O)/C=C2\Sc3ccccc3N2C)cc1,43.4 µM
19,Cc1ccc2nc(SCC(=O)N/N=C/c3ccco3)cc(C)c2c1,> 80 µM (inactive)
20,Cc1nc2c(o1)C(=O)c1ccccc1C2=Nc1ccccc1,> 80 µM (inactive)
21,COc1cccc(/C=N/NC(=O)c2c(C)nc3ccc(Br)cn23)c1,52.3 µM
22,COc1ccccc1NS(=O)(=O)c1cc(NC(=O)c2ccc(Cl)nc2)ccc1N1CCCC1,32.1 µM

row,SMILES,IC50
1,COc1ccc(OCc2nnc3n2N=C(c2ccccc2)C(CC(=O)O)S3)cc1 (configuration not stated),> 80 µM (inactive)
2,Cc1cccc(NC2=C(NC(=O)c3ccccc3)C(=O)c3ccccc3C2=O)c1,> 80 µM (inactive)
3,CC1=CC(=NOC(=O)/C=C/c2ccccc2)C=C(C)C1=O,> 80 µM (inactive)
4,Cc1nnc(Sc2cc(NCCO)c([N+](=O)[O-])c3nonc23)s1,36.6 µM
5,Cc1cccc(C2(c3cccc(C)c3)CC2C(=O)Nc2ccc([N+](=O)[O-])cc2O)c1 (configuration not stated),> 80 µM (inactive)
6,CCC1(CC)Cc2ccccc2C(N)=C1C#N,> 80 µM (inactive)
7,COc1cc(CNc2ccc3[nH]c(=O)[nH]c3c2)ccc1OCc1ccccc1,> 80 µM (inactive)
8,Cc1cc(C)c2c(=O)n(CC(=O)NC3CCCC3)sc2n1,> 80 µM (inactive)
9,CCOC(=O)c1ccc(/[N+]([O-])=C/c2ccccc2)cc1,> 80 µM (inactive)
10,c1cc(CNc2ccc3c(c2)OCO3)ccn1,> 80 µM (inactive)
11,CN(C)c1cccc2c1c(NC(=O)c1ccc(Cl)cc1)nn2C,> 80 µM (inactive)
12,[O-]/[N+](=C\c1ccccc1)c1ccc(Br)cc1,> 80 µM (inactive)
13,O=C(Cn1sc2ccccc2c1=O)Nc1ccc(Br)cc1,17 µM
14,COc1ccccc1N1CSC2=C(C#N)C(c3ccc(SC)cc3)CC(=O)N2C1 (configuration not stated),62.6 µM
15,Nc1c(O)cccc1C(=O)O,40.9 µM
16,Cc1ccc(/C=C/C(=O)N2CCN(S(=O)(=O)c3ccc(C)c(C)c3)CC2)o1,> 80 µM (inactive)
17,O=S(=O)(Nc1cc(Sc2cccc3cccnc23)c(O)c2ccccc12)c1ccc(F)cc1,59.4 µM
18,Cc1no[n+]([O-])c1COc1cccc(/C=N/Nc2nncn2N)c1,30.5 µM
19,CCC(CO)[n+]1c(C)cc(/C=C2\Sc3ccccc3N2Cc2ccccc2)cc1C (configuration not stated),24.3 µM
20,C=C1C(=O)O[C@@H]2C[C@@H](C)[C@@H]3C=CC(=O)[C@@]3(C)[C@@H](OC(=O)CC(=O)O[C@H]3[C@@H]4C(=C)C(=O)O[C@@H]4C[C@@H](C)[C@@H]4C=CC(=O)[C@]43C)[C@H]12,> 80 µM (inactive)
21,COc1cc(CNc2ccc(N3CCCC3)cc2)ccc1OCc1ccccc1F,> 80 µM (inactive)
22,N#CC(C#N)=C1C=CC=CN1/C(=C\c1ccccc1Cl)C(=O)c1ccccc1,> 80 µM (inactive)

row,SMILES,IC50
1,COc1cc(N=c2ssnc2Cl)cc(OC)c1OC,34 µM
2,CCOC(=O)c1ccc(-n2c(N)c(C(=O)NCC3CCCO3)sc2=S)cc1 (configuration not stated),> 80 µM (inactive)
3,COCCNC(=S)Nc1ccc(N2CCOCC2)c(S(=O)(=O)Nc2ccc(Cl)cc2)c1,> 80 µM (inactive)
4,CNS(=O)(=O)c1ccc(-c2ccc(C=C3C(=O)NC(=O)NC3=O)o2)cc1,33.6 µM
5,CC1=CC(C)(C)Nc2ccc(OC(=O)CN3C(=O)c4cccc5cccc(c45)C3=O)cc21,76.9 µM
6,Cc1nnc(N/N=C/c2ccc(-c3ccccc3F)o2)n1N,32.1 µM
7,Cc1cc(C)nc(/N=C(\N)Nc2ccccc2-c2ccccc2)n1,> 80 µM (inactive)
8,CN(C)c1ccc(C=c2c3cc([N+](=O)[O-])ccc3n3c2cc(-c2ccccc2)[n+]3C)cc1,35.1 µM
9,Cc1cc(C)c2c(=O)n(CC(=O)N3CCC(N4CCCCC4)CC3)sc2n1,48.4 µM
10,O=S(=O)(Nc1cc(Sc2ncn[nH]2)c(O)c2ccccc12)c1ccccc1,23.9 µM
11,O=C1Nc2ccccc2C(=O)C1(Cl)Cc1ccccc1 (configuration not stated),> 80 µM (inactive)
12,c1ccc(-c2cn3c(n2)CCc2ccc4cccnc4c2-3)cc1,> 80 µM (inactive)
13,O=C1C=CC(=O)N1CCCCCCCCCCN1C(=O)C=CC1=O,> 80 µM (inactive)
14,CC1CCc2c(nc3sc4c(c3c2N)CCCC4)C1 (configuration not stated),> 80 µM (inactive)
15,O=C1Nc2cc(C(=O)NCCCN3CCCC3)ccc2S/C1=C/c1cccc(Cl)c1,34.2 µM
16,COc1ccc(-n2sc3ccccc3c2=O)cc1,14.7 µM
17,CCN(CC)c1nc(N)nc(NS(=O)(=O)c2ccc(Cl)cc2)n1,> 80 µM (inactive)
18,Cc1ccc(NC(=O)c2cc(N3C(=O)C=CC3=O)ccc2N2CCOCC2)cc1Cl,> 80 µM (inactive)
19,CC(C)Sc1nnc(NC(=O)c2ccc3c(c2)OCO3)s1,29.5 µM
20,CC(Cc1ccc(O)c(O)c1)C(C)Cc1ccc(O)c(O)c1 (configuration not stated),54.9 µM
21,NCCc1cc(O)c(O)cc1O,39.1 µM
22,C(=N\Nc1nc2ccccc2[nH]1)/c1ccccn1,> 80 µM (inactive)

row,SMILES,IC50
1,CN(C)c1ccc(C=c2c3cc(O)ccc3n3c2cc(-c2ccccc2)[n+]3C)cc1,> 80 µM (inactive)
2,CN(C)c1ccc(/C=C/c2ccc3c4ccccc4ccc3[n+]2-c2ccccc2)cc1,44.3 µM
3,Cc1nc2ccc(Nc3nc4cc(S(=O)(=O)N5CCOCC5)ccc4o3)cc2s1,> 80 µM (inactive)
4,O=c1c2ccccc2sn1-c1ccc(Cl)cc1Cl,12.9 µM
5,COc1ccc(C2(CNC(=O)c3ccc(OC)c([N+](=O)[O-])c3)CCCCC2)cc1OC,> 80 µM (inactive)
6,Nc1ccc(N(CCO)CCO)cc1,> 80 µM (inactive)
7,O=C(O)CSc1cc(NS(=O)(=O)c2cccc([N+](=O)[O-])c2)c2ccccc2c1O,> 80 µM (inactive)
8,CCn1c(SCC(=O)Nc2ccccc2OC)nnc1-c1cnccn1,> 80 µM (inactive)
9,Cn1c(=O)c2c([nH]c(=S)n2CCCc2ccccc2)n(C)c1=O,72.8 µM
10,CC1(OC(=O)C2CCCC2)C(=O)C=C2C=C(c3ccsc3)N(CCc3c[nH]c4ccccc34)C=C2C1=O (configuration not stated),> 80 µM (inactive)
11,COc1cccc(C(=O)Nc2nnc(C(C)C)s2)c1,21.4 µM
12,CN(CCO)c1cc(Sc2nc3ccccc3s2)c2nonc2c1[N+](=O)[O-],> 80 µM (inactive)
13,C#CCCc1cscc1/C=[N+](\[O-])c1ccc(C(=O)OCC)cc1,36.4 µM
14,COc1cc(OC)c(C2CC(=O)N3CN(c4ccccc4)CSC3=C2C#N)cc1OC (configuration not stated),> 80 µM (inactive)
15,COc1cc(/C=N/Nc2nncn2N)ccc1OCc1c(C)no[n+]1[O-],> 80 µM (inactive)
16,CC(=O)c1cccc(NC(=O)c2cnn(-c3ccccc3)c2C)c1,58.4 µM
17,Cc1ccc(/C=C/C(=O)NCC2COc3ccccc3O2)o1 (configuration not stated),> 80 µM (inactive)
18,O=c1c2ccccc2sn1-c1cc(S(=O)(=O)N2CCOCC2)ccc1N1CCCC1,12.5 µM
19,Cc1ccc(NS(=O)(=O)c2ccccc2Cl)c2c1CC(C)(C)O2,> 80 µM (inactive)
20,CN(C)c1nc(=NCc2cccs2)ss1,> 80 µM (inactive)
21,COc1cc(NCCCn2cnc(C(=O)Nc3ccc(C)c(C)c3)n2)cc(OC)c1OC,> 80 µM (inactive)
22,O=C1C=CC(=O)N1c1ccc(-c2nc3ccccc3o2)cc1,> 80 µM (inactive)

row,SMILES,IC50
1,Cc1cc(O)c(C(C)C)cc1N=Cc1ccccc1[N+](=O)[O-],> 80 µM (inactive)
2,O=[N+]([O-])c1ccc(Sc2cccc3cccnc23)c2cccnc12,> 80 µM (inactive)
3,O=C1C=CC2=C3c4cc(O)c(O)cc4CC3(O)COC2=C1O (configuration not stated),37.8 µM
4,CSc1nnc(NC(=O)c2ccc3c(c2)OCO3)s1,27.1 µM
5,CN1CCN(C(=S)C(=O)Nc2ccc(Br)cc2)CC1,57.7 µM
6,Cc1ccc(NNS(=O)(=O)c2ccc(C)cc2)cc1,36.8 µM
7,O=c1c2ccccc2sn1-c1nccs1,23.1 µM
8,O=c1c2cc(C(F)(F)F)ccc2sn1-c1ccccc1,20.3 µM
9,COc1ccc2ccccc2c1C1CC(=O)N2CN(C3CCCCC3)CSC2=C1C#N (configuration not stated),> 80 µM (inactive)
10,CCN(CC)c1ccc(NC(=O)c2cccc(C)c2)cc1S(=O)(=O)Nc1ccccc1OC,31.3 µM
11,Cn1c(=O)[nH]c(=O)c2c1nc(SCCN1CCCCC1)n2CCCc1ccccc1,56.7 µM
12,O=c1c2ccccc2[se]n1-c1ccccc1,22.1 µM
13,CC1(C)Nc2ccc(O)cc2-c2c1ssc2=S,> 80 µM (inactive)
14,CN(C)S(=O)(=O)c1cccc(-n2sc3ccccc3c2=O)c1,12.8 µM
15,CCOC(=O)Nc1ccc(NCc2ccc(F)cc2)nc1N,> 80 µM (inactive)
16,CC(=NNC(=S)N1CCN(c2ccccn2)CC1)c1nccs1,> 80 µM (inactive)
17,Cc1ccc(-n2sc3ccccc3c2=O)cc1,19.1 µM
18,O=c1[nH]c(NCCO)c(N=Cc2ccccc2)c(=O)[nH]1,> 80 µM (inactive)
19,CCOc1ccc(NC(=O)Cn2sc3nc(C)cc(C)c3c2=O)cc1,37.5 µM
